Reference: patent publication US20080206219A1, “Novel Indications for Transforming Growth Factor-Beta Regulators” (THE REGENCTS OF THE UNIVERSITY OF CALIFORNIA, priority 2003, published 2008)

B1: VEGFA164: VEGF164 (Chemicon), agent known to induce vascular leakage via VEGFR2 (protein)
chain: APTTEGEQKSHEVIKFMDVYQRSYCRPIETLVDIFQEYPDEIEYIFKPSCVPLMRCAGCCNDEALECVPTSESNITMQIMRIKPHQSQHIGEMSFLQHSRCECRPKKDRTKPENHCEPCSERRKHLFVQDPQTCKCSCKNTDSRCKARQLELNERTCRCDKPRR

Legend:
Assay type in all cases: in vivo
[1] = system: Collα1(I)+/+ and Collα1(I)r/r mice; experiment: Miles assay: Evans blue leakage in ears after mustard oil challenge; settings: for Evans blue staining of ears following MO exposure: 5% mustard oil in mineral oil
Protocol: Evans blue (EB) dye (30 mg/kg in 100 μl PBS; Sigma-Aldrich) was injected into the tail vein of 7- to 8-week-old mice. In some experiments, after 1-min, 30 μl of 5% mustard oil (Phenyl Isothiocyanate, 98%, Sigma-Aldrich) diluted in mineral oil (Sigma-Aldrich) was applied to the dorsal and ventral surfaces of the ear; the application process was repeated 15 minutes later. Isoflurane anesthesized mice were photographed 30 minutes after injection of EB dye. Anesthesized mice were then cardiac perfused, ears removed, blotted dry and weighed. EB dye was extracted from ears in 1 ml of formamide overnight to 48-hrs at 60° C. and measured spectrophotometrically at 610 nm in a SpectraMax 340™ (Molecular Devices). Data are expressed as mean±SEM. Comparisons of the amounts of dye extravasation were evaluated by Mann-Whitney statistical test with p values less than 0.05 considered significant. In some experiments, 5-min prior to the infusion of EB dye, shaved 5-to 7-week old mice were injected (10 μl) intradermally with one of the following agents at the concentrations shown (VEGF120, R&D Systems; VEGF164, Chemicon; histamine, Calbiochem; serotonin, Sigma-Aldrich) and the appearance of a blue spot monitored for 30 minutes at which time mice were euthanized, cardiac perfused, photographed and the area of skin surrounding the site of injection excised (˜5 mm^2), photographed and EB dye extracted as above. […]
The vascular physiology in a mouse model of human Sc, e.g., Collα1(I)^r/r mice, was studied to determine whether an altered balance between collagen synthesis, accumulation and/or degradation was a rate-limiting factor for efficient vascular physiology prior to histopathologic appearance of Sc disease. The ears of Collα1(I)^r/r versus littermate control (Collα1(I)^+/+) mice were treated with vehicle alone (mineral oil; FIG. 1A) or mustard oil (MO; 5% in mineral oil: right ear), an inflammatory agent that induces plasma leakage, vasodilation of capillaries and inflammation in the skin (FIG. 1A). Evans blue dye (30 mg/kg in 100 μl PBS; Sigma Chemical Co., St. Louis, Mo., USA) was injected into the tail vein of the mice. After 1 minute, 5% mustard oil (Phenyl Isothiocyanate, 98%, Sigma) diluted in mineral oil (Sigma) was applied to the dorsal and ventral surfaces of the ear with a cotton swab; the application process was repeated 15 minutes later. […] Isoflurane anesthesized mice were photographed 30 minutes after injection of Evans blue dye. Anesthesized mice were then cardiac perfused, ears removed, blotted dry, and weighed. The Evans blue dye was extracted from the ears with 1 ml of formamide overnight at 60° C. and measured spectrophotometrically at 610 nm in a SpectraMax 340™ (Molecular Devices). Data are expressed as mean±SEM. Comparisons of the amounts of dye extravasation were evaluated by the Fisher's t test with p values less than 0.05 considered significant.
Vascular permeability (VP) responses in control and Collα1(I)^r/r mice treated with a broad spectrum synthetic metalloproteinase inhibitor (MPI), e.g., GM6001 were examined. GM6001 (N-[(2R)-2(hydroxyamidocarbonylmethyl)-4-methylpantanoyl]-L-tryptophan ethylamide), a broad, class-specific metalloproteinase inhibitor (Chemicon, Temecula Calif.), was administered daily i.p. at 100 mg/kg body weight as a 20 mg/ml slurry in 4% carboxymethylcellulose in 0.9% PBS daily for 3-days. Controls were treated with a daily injection of 4% carboxymethylcellulose in PBS. The animals were then subject to cutaneous challenge with MO and qualitative and quantitative assessment of Evans blue dye leakage into vascular stroma (FIG. 5A).

[2] = system: control and Collα1(I)r/r mice; experiment: Fluorescent angiography of whole mounted ears after mustard oil
[3] = system: control and Collα1(I)r/r mice; experiment: Modified Miles assay: intradermal injection of permeability-inducing agents; settings: for Evans blue leakage response after intradermal injection: Collα1(I)r/r mice versus control mice, all concentrations tested; for leakage of Evans blue dye into stroma after intradermal injection: control mice, increasing concentrations
Protocol: Evans blue (EB) dye (30 mg/kg in 100 μl PBS; Sigma-Aldrich) was injected into the tail vein of 7- to 8-week-old mice. In some experiments, after 1-min, 30 μl of 5% mustard oil (Phenyl Isothiocyanate, 98%, Sigma-Aldrich) diluted in mineral oil (Sigma-Aldrich) was applied to the dorsal and ventral surfaces of the ear; the application process was repeated 15 minutes later. Isoflurane anesthesized mice were photographed 30 minutes after injection of EB dye. Anesthesized mice were then cardiac perfused, ears removed, blotted dry and weighed. EB dye was extracted from ears in 1 ml of formamide overnight to 48-hrs at 60° C. and measured spectrophotometrically at 610 nm in a SpectraMax 340™ (Molecular Devices). Data are expressed as mean±SEM. Comparisons of the amounts of dye extravasation were evaluated by Mann-Whitney statistical test with p values less than 0.05 considered significant. In some experiments, 5-min prior to the infusion of EB dye, shaved 5-to 7-week old mice were injected (10 μl) intradermally with one of the following agents at the concentrations shown (VEGF120, R&D Systems; VEGF164, Chemicon; histamine, Calbiochem; serotonin, Sigma-Aldrich) and the appearance of a blue spot monitored for 30 minutes at which time mice were euthanized, cardiac perfused, photographed and the area of skin surrounding the site of injection excised (˜5 mm^2), photographed and EB dye extracted as above.
The vascular leakage in control and Collα1(I)^r/r mice following intradermal injection of other agents known to induce vascular leakage, e.g., VEGFA120, VEGFA164 and serotonin (versus vehicle alone), by interacting with distinct cell surface receptors, e.g., VEGF receptor-2 (VEGFR2) and serotonin receptors, respectively (FIG. 3A) were assessed. 5 min prior to the infusion of Evans blue dye, shaved 5-to 7-week old mice were injected (10 μl) intradermally with VEGF120 (R&D Systems) VEGF164 (Chemicon; histamine, Calbiochem) serotonin (Sigma) TIMP-1 (Oncogene Research Products, San Diego Calif.) and the appearance of a blue spot monitored for 30 minutes at which time mice were euthanized, cardiac perfused, photographed and the area of skin surrounding the site of injection excised (˜5 mm^2), photographed and Evans blue dye extracted as above.

[4] = target: T1, VEGFR2 (Mus musculus, UniProt P35918); experiment: VEGFR2 phosphorylation, IP-western of tissue lysates after intradermal VEGF164; settings: control and Collα1(I)r/r mice; VEGF164 10 ng i.d.
T1 construct: tissue lysates were subjected to immunoprecipitation with anti-VEGFR2 antibodies; from tissue; host or cells: mouse skin after intradermal VEGF164 or BSA
Protocol: VEGFR2: Tissue pieces (5 mm^2) from animals were collected from ears or following shaving of back skin or following injection (i.d.) of 10 μl 10 ng VEGF164 or 0.1% BSA in PBS. Tissues were pulverized in liquid N2 followed by lysis in ice-cold buffer containing 20 mM Tris, pH 7.6, 150 mM NaCl, 1 mM EDTA, 50 mM NaF, 1% triton X-100, 0.5% Na-deoxycholate, 0.1% SDS, 2 mM Na2VO4, 10 μg/ml aprotinin, 1 mM phenylmethylsulfonylfluoride and centrifuged at 10,000 rpm for 30-min at 4° C. The supernatants were recentrifuged at 10,000 rpm for 30-min at 4° C. Lysates were then incubated in a slurry of heparin-Sepharose CL-6B (Pharmacia) and incubated overnight rocking at 4C, centrifugation and equilibrated to 150 mM NaCl. Protein was dialyzed against PBS and quantified using the BioRad protein assay system (BioRad). Before immunoprecipitation, BSA was added to the pre-cleared lysates to 0.5%. Equal amounts of protein (1 mg) from lysates were used for immunopreciptations and Western blotting. […]
Following intradermal injection of VEGF164 (10 ng), tissue lysates were subjected to immunoprecipitation with anti-VEGFR2 antibodies, followed by SDS-PAGE electrophoreses of immune complexes and western blot analysis with anti phospho-tyrosine and anti-VEGFR2 antibodies (FIG. 3B). […] Protein was dialyzed against PBS and quantified using the BioRad protein assay system (BioRad, Hercules, Calif.). […]

T1 sequence (P35918 20-1345): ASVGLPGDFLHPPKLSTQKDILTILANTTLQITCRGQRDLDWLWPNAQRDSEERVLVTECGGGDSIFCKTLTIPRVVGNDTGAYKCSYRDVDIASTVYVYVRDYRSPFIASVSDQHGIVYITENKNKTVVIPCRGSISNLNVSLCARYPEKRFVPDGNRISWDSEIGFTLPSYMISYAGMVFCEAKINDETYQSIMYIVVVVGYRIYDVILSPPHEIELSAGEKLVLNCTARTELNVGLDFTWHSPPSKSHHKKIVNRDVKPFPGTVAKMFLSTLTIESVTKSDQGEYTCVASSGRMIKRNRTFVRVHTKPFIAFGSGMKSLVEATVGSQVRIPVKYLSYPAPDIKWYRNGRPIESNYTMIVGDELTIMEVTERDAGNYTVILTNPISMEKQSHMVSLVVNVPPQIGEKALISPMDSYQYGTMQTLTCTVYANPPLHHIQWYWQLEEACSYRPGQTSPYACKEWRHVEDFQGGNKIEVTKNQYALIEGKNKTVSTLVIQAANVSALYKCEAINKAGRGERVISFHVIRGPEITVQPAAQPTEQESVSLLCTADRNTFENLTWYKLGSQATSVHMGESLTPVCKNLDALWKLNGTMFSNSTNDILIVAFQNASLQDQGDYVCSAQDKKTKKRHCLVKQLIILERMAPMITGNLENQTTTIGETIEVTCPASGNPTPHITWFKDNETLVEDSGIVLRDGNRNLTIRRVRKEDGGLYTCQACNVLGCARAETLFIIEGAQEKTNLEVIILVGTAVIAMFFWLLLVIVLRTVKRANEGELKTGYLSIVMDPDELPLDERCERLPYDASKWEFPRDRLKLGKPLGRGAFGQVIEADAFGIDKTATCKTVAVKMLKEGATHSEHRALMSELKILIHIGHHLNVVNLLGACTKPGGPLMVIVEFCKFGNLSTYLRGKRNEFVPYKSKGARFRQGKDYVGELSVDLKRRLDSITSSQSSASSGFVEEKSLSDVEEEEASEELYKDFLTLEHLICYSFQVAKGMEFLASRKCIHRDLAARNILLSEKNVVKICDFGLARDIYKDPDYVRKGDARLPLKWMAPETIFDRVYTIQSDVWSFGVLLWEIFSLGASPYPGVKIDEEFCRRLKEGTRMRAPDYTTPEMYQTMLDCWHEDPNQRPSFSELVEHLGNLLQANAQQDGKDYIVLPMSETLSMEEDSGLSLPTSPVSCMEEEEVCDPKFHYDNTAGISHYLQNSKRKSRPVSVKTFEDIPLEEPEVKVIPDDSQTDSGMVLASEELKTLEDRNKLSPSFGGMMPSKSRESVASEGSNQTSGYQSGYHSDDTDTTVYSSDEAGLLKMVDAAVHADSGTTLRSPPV

Molecule	amount of Evans blue leaked in response to MO, lower than in control animals ([1]; Collα1(I)r/r mice versus controls, p=0.0002) [%]	Evans blue staining of ears following MO exposure ([1]; Collα1(I)r/r mice)	Evans blue staining of ears following MO exposure ([1]; littermate control mice)	total vascular area after MO versus vehicle ([2]; Collα1(I)r/r mice)	vasodilation of macrovasculature (vessel diameter) after MO ([2]; Collα1(I)r/r mice)	vasodilation of macrovasculature (vessel diameter) after MO ([2]; control mice)	total vascular area after MO versus vehicle ([2]; control mice, p<0.04)	Evans blue leakage response after intradermal injection [3]	leakage of Evans blue dye into stroma after intradermal injection [3]	phosphorylation of VEGFR2 following exposure to VEGF [4]
S=C=Nc1ccccc1 [MO, Phenyl Isothiocyanate]	~50	remained pale with only a modest hint of blue	moderately blue	unchanged	not observed	increased vasodilation of macrovasculature	significant increase in total vascular area			
NCCc1c[nH]c2ccc(O)cc12 [serotonin]								significantly inhibited	significant leakage	
B1								significantly inhibited	significant leakage	similarly increased levels of phosphorylation
